Experimental findings from ChEMBL document CHEMBL5465560, “Selectivity Literature for EUbOPEN Chemogenomic Library” (2024) are described below.

The target in assay [1] is cAMP-dependent protein kinase catalytic subunit alpha (Homo sapiens, UniProt P17612). Kind of assay: Selectivity interaction (Kinase panel (Z-LYTE Assay)) EUB0001632a PRKACA. Particulars: at 10 µM.
In assay [2] the target is Activin receptor type-2B (Homo sapiens) (UniProt Q13705). Kind of assay: Selectivity interaction (LanthaScreen Eu Kinase Binding Assay) EUB0001632a ACVR2B. Particulars: at 10 µM. For orientation: In TR-FRET formats the signal depends on donor and acceptor labels being close together.
Activin receptor type-2B (Homo sapiens), sequence (Q13705 whole entry): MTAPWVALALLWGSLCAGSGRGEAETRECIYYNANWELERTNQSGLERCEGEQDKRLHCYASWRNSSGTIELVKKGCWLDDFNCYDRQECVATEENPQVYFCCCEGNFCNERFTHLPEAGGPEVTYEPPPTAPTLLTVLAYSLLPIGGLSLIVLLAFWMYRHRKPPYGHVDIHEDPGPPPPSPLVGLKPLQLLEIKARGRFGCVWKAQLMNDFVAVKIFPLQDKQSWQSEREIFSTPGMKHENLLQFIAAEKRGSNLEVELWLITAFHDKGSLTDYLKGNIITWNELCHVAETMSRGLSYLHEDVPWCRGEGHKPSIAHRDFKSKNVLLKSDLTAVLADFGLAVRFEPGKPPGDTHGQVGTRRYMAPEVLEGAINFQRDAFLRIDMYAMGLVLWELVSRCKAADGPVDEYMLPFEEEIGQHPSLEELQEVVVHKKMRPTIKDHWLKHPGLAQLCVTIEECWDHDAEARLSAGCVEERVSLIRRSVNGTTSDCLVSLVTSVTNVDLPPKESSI
The target in assay [3] is DNA-dependent protein kinase catalytic subunit (Homo sapiens) (UniProt P78527). In words: Selectivity interaction (Kinase panel (Z-LYTE Assay)) EUB0001632a PRKDC. To be noted: at 10 µM.
Assay [4] has as its target T1, Dual specificity mitogen-activated protein kinase kinase 6 (Homo sapiens) (UniProt P52564).
T1 sequence (whole entry): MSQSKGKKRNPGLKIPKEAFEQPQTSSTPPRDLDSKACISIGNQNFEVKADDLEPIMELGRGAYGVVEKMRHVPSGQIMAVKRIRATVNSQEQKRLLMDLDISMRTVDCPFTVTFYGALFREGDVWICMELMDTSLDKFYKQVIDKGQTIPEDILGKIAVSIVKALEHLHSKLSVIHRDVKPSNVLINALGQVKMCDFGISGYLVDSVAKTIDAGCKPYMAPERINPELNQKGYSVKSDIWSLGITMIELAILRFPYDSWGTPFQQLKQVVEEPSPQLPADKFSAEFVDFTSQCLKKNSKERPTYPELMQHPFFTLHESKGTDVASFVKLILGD
In words: Selectivity interaction (Ambit KINOMEscan and KiNATiv profiling in Jurkat cells) EUB0000090b MAP2K6. Format: cell-based. Particulars: at 1 µM.

The target of assay [5] is Rho-associated protein kinase 1 (Homo sapiens) (UniProt Q13464). Kind of assay: Selectivity interaction (KinomeScan (DiscoverX)) EUB0000607a ROCK1. To be noted: at 10 µM.
Rho-associated protein kinase 1 (Homo sapiens), sequence (Q13464 2-1354 limits assumed): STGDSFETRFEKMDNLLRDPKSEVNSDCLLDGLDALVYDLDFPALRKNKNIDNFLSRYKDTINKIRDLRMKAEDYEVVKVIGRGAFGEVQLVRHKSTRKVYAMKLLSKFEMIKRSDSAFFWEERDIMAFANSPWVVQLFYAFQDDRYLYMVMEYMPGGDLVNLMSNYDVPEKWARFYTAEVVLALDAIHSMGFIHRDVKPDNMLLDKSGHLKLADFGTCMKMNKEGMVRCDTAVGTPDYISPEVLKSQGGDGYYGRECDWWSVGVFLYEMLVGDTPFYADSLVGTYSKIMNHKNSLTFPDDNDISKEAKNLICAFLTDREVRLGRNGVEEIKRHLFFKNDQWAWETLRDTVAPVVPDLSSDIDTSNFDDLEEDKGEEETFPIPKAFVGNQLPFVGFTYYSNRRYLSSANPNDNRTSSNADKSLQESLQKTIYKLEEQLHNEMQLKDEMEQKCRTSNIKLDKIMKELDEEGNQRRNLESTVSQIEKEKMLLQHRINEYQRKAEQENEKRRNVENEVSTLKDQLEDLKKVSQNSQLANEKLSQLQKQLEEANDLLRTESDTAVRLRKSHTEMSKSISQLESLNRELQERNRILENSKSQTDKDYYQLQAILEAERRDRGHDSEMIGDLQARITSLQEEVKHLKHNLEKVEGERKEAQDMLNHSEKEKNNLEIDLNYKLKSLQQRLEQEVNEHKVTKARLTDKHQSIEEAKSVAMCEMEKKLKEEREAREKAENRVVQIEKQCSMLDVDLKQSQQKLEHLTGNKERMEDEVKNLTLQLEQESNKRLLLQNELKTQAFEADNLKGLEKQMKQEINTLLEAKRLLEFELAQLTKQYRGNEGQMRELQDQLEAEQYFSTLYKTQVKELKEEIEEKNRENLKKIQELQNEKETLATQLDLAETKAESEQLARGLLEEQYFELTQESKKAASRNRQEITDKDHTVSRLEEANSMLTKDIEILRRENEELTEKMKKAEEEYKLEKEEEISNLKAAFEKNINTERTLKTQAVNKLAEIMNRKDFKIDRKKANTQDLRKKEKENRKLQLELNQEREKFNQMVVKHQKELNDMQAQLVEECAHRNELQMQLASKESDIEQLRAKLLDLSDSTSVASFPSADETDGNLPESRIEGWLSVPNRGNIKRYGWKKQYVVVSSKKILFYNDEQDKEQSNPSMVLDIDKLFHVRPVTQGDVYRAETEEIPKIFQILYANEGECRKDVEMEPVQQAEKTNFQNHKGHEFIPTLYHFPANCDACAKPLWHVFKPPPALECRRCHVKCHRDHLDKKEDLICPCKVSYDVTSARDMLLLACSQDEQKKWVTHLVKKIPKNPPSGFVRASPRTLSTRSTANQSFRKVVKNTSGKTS
The target of a further assay is Ephrin type-A receptor 4 (Homo sapiens, UniProt P54764). To be noted: at 10 µM.
Ephrin type-A receptor 4, sequence (P54764 whole entry): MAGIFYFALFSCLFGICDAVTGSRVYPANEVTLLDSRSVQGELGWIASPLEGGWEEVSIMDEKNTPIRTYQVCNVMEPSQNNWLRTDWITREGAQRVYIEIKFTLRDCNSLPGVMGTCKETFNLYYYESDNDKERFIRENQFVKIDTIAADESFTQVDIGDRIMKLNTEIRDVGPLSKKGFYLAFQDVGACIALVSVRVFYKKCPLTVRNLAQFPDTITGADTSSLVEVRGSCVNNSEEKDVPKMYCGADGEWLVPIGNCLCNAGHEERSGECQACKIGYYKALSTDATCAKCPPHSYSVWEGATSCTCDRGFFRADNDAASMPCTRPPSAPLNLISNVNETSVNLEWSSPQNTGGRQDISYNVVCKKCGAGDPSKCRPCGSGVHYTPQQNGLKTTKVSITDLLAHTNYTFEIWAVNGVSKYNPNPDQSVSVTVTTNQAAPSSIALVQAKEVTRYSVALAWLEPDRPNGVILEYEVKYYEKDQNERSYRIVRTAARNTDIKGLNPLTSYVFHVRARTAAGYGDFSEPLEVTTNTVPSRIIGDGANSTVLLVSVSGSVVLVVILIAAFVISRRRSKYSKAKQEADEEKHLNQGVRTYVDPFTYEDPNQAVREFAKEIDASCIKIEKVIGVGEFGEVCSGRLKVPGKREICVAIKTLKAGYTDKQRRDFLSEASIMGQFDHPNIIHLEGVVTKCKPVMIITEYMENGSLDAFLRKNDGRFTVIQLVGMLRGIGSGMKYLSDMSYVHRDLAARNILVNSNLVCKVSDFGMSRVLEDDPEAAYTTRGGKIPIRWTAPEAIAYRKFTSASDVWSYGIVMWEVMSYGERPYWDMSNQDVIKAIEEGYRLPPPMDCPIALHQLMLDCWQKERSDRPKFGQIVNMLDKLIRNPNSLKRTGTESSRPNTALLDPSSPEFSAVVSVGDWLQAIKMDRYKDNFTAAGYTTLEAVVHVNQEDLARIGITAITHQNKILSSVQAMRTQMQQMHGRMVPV
Assay [6] addresses Proto-oncogene tyrosine-protein kinase Src (Homo sapiens, UniProt P12931). Kind of assay: Selectivity interaction (KinomeScan (DiscoverX)) EUB0000655a SRC. To be noted: at 10 µM.
The target of assay [7] is T2, Tyrosine-protein kinase ZAP-70 (Homo sapiens) (UniProt P43403).
T2 sequence (whole entry): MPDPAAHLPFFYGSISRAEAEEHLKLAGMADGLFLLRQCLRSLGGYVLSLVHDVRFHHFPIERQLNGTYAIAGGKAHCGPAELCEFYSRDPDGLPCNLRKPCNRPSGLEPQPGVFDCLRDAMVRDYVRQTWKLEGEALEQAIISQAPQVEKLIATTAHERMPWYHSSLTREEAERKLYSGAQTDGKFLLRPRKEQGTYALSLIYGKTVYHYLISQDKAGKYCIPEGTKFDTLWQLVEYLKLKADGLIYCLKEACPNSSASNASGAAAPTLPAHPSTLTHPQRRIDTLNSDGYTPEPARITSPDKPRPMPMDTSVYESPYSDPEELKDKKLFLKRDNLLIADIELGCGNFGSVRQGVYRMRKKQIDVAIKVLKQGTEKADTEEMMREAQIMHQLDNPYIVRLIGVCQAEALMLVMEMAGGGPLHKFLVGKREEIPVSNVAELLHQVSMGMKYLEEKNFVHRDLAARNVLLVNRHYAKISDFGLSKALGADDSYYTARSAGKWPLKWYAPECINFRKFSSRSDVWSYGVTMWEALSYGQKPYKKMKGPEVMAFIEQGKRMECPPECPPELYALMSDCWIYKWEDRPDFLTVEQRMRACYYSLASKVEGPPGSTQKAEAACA
Kind of assay: Selectivity interaction (ActivX KiNativ screen (ex vivo kinase selectivity in human PBMCs)) EUB0001619a ZAP70. Format: cell-based. Particulars: PBMC, at 1 µM.

In assay [8] the target is MAP/microtubule affinity-regulating kinase 3 (Homo sapiens) (UniProt P27448). To be noted: at 10 µM.
MAP/microtubule affinity-regulating kinase 3 (Homo sapiens), sequence (P27448 whole entry, looked up): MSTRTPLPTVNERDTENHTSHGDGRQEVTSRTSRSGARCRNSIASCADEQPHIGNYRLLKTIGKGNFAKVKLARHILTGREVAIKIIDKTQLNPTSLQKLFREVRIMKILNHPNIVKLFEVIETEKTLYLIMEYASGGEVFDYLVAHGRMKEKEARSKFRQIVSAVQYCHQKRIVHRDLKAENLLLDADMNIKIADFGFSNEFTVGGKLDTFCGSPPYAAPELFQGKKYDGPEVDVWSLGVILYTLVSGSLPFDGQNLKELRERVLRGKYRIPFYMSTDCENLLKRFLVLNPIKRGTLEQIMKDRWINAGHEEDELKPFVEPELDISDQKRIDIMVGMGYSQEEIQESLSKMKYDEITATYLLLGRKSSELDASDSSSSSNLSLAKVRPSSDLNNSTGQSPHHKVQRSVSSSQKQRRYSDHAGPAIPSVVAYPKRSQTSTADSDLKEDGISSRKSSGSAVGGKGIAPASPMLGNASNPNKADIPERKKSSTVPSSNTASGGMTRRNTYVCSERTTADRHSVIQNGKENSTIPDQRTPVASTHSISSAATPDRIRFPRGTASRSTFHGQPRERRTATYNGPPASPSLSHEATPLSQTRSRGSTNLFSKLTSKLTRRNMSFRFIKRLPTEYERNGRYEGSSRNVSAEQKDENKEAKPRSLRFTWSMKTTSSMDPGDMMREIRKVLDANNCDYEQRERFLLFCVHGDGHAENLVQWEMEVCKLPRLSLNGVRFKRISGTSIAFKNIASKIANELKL
Assay [9] addresses Tyrosine-protein kinase Blk (Homo sapiens) (UniProt P51451). To be noted: at 10 µM.
The target of assay [10] is T3, Serine/threonine-protein kinase BRSK2 (Homo sapiens) (UniProt Q8IWQ3).
T3 sequence (whole entry): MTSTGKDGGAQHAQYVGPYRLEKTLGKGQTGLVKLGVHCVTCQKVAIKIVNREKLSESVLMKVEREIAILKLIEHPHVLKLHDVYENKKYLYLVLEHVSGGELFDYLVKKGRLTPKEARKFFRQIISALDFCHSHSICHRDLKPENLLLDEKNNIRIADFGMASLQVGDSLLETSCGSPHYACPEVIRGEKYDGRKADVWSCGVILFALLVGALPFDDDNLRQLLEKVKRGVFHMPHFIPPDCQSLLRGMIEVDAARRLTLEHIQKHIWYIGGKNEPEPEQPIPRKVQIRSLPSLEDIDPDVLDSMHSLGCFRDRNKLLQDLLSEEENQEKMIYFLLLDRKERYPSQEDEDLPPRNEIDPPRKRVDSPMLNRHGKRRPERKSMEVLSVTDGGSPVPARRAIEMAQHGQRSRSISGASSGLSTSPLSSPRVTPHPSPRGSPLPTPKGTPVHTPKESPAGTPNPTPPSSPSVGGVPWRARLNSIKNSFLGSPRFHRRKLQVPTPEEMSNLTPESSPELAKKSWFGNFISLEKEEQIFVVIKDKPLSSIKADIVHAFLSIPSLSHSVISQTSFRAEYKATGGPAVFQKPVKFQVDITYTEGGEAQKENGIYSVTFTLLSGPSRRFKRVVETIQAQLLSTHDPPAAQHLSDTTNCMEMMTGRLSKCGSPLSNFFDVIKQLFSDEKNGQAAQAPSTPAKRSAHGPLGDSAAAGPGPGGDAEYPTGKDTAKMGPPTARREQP
Kind of assay: Selectivity interaction (KinomeScan (DiscoverX)) EUB0000092b BRSK2. Particulars: at 10 µM.

The target of assay [11] is T4, Uncharacterized serine/threonine-protein kinase SBK3 (Homo sapiens) (UniProt P0C264).
T4 sequence (whole entry): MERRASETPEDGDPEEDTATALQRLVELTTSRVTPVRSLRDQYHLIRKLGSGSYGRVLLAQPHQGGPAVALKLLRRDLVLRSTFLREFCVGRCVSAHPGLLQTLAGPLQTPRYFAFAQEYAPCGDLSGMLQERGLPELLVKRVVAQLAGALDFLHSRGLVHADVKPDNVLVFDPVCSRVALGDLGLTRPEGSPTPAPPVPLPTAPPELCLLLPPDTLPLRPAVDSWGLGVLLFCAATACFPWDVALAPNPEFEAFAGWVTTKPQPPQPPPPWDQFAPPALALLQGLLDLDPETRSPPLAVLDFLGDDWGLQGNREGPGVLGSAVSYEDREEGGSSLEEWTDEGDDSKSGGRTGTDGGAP
Kind of assay: Selectivity interaction (KinomeScan (DiscoverX)) EUB0000092b SBK3. To be noted: at 10 µM.

Assay [12] deals with Cyclin-dependent kinase 3 (Homo sapiens) (UniProt Q00526). In words: Selectivity interaction (KinomeScan (DiscoverX)) EUB0000045b CDK3.
Cyclin-dependent kinase 3 (Homo sapiens), sequence (Q00526 whole entry, looked up): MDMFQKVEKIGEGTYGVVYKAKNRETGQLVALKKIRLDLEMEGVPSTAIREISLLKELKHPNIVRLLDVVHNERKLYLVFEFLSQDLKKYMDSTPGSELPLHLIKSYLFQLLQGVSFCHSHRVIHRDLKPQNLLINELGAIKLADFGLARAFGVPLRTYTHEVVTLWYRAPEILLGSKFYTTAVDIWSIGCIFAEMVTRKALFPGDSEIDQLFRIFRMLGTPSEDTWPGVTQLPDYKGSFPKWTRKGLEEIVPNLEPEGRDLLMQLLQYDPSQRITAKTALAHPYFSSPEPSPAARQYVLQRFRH

Tyrosine-protein kinase Blk (Homo sapiens), sequence (P51451 2-505 limits assumed): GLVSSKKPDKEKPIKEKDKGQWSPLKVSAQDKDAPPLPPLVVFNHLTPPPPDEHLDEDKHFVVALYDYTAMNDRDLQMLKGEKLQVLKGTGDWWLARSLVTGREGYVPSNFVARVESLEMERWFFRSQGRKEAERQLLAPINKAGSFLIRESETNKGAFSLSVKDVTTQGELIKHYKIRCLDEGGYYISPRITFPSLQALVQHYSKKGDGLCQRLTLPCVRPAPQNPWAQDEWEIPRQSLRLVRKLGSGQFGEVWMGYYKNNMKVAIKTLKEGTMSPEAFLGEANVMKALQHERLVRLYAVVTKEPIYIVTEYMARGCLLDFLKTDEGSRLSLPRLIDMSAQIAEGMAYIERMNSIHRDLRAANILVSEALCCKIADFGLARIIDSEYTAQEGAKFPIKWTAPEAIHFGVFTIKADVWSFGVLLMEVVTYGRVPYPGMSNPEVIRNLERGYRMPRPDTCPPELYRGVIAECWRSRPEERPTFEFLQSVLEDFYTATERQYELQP
Proto-oncogene tyrosine-protein kinase Src, sequence (P12931 2-536 limits assumed): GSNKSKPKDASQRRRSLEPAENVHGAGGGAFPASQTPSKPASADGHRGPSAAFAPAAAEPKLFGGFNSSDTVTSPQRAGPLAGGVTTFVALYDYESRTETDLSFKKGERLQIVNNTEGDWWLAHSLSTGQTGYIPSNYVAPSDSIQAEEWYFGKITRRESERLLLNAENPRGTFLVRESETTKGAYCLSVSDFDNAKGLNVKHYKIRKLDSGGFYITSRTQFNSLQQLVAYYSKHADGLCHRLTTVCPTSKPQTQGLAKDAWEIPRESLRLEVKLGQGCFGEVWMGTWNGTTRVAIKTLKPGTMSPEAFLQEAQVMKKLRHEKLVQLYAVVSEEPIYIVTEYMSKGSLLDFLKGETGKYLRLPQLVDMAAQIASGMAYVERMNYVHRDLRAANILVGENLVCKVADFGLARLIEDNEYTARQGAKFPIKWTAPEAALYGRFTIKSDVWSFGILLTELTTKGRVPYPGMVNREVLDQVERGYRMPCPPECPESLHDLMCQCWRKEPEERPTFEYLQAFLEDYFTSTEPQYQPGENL

As to `Cn1cc(-n2cnc3c(NCc4nc5cc(Cl)c(Cl)cc5[nH]4)nc(N4CCOCC4)nc32)cn1`, the % of control in assay [1] was 1.33%; in assay [3] it was 11.8%. For the same compound, the % of inhibition in assay [2] was -21.2%.
In [4], `CN(C)C/C=C/C(=O)Nc1ccc(C(=O)N2CCCC(Nc3ncc(Cl)c(-c4c[nH]c5ccccc45)n3)C2)cc1` (centres undefined) returned a % of control of 78%.
For the compound `CNC(=O)Nc1ccc(-c2nc(N3CC4CCC(C3)O4)c3cnn(C4CCC5(CC4)OCCO5)c3n2)cc1`, the % of control in [5] came to 100%.
On Ephrin type-A receptor 4, `Cc1cc([C@@H](C)Nc2ccccc2C(=O)O)c2nc(N3CCOCC3)cc(=O)n2c1` [AZD-6482] showed a % of control of 93%.
Regarding `CN(C)CCOc1ccc(-c2nc(-c3ccncc3)c(-c3ccc4c(c3)CC/C4=N\O)[nH]2)cc1`, in [6], the % of control came out at 77%.
As to `N#Cc1cccc(-c2c[nH]c3ncnc(N4CCOCC4)c23)c1`, the % of inhibition in assay [7] was -3%.
Consider `CCN(CC)CCCCNc1ncc2cc(-c3cc(OC)cc(OC)c3)c(NC(=O)NC(C)(C)C)nc2n1`, for which the % of control in assay [8] and in assay [9] was 100% in each case.
With `CCC(=O)N1CCN(c2ccc(-n3c(=O)ccc4cnc5ccc(-c6cnc7ccccc7c6)cc5c43)cc2C(F)(F)F)CC1`, the % of control is 76% in assay [10] and 94% in assay [11].
On to `C=CC(=O)Nc1cc(-n2c(=O)ccc3cnc4ccc(-c5ccc(NS(C)(=O)=O)cc5)cc4c32)ccc1C`, for which the % of control in [12] (at 1 µM) and in assay [12] (at 10 µM) was 100% in each case.
